Laboratory results taken from patent US20210277009A1, “PRMT5 INHIBITORS” (Merck Sharp & Dohme Corp., priority 2018, published 2021).
Where a name gives a salt, the structure may show the parent alone. Read-outs that look alike come from different tables or passages of the source.

Assays:
[1] = system: symmetric dimethylation of arginine (SDMA) of PRMT5 substrates in MCF-7 cells; assay: PRMT5 Cell Target Engagement (TE) Assay; format: cell-based; conditions: treated for 3 days, nuclear SDMA by high content imaging, top concentration 10000 nM
From the text: The PRMT5 TE assay is a biomarker assay for identifying compounds that inhibit symmetric dimethylation of arginine (SDMA) of PRMT5 substrates. The following substrates have been reported for PRMT5: histone H2A and H4 R3, Histone H3 R2, Histone H3 R8, spliceosome Sm proteins, ribosomal protein RPS10, p53, FEN1, nudeoplasmin, nucleolin, EGFR and EBNA. The assay will focus on detecting symmetrically dimethylated nuclear proteins using high content imaging technology. Detection of the expression of symmetrically dimethylated nuclear proteins is through a mixture of primary rabbit monoclonal antibodies to SDMA (CST 13222), which in turn recognized by an Alexafluor 488 dye-conjugated anti-rabbit IgG secondary antibody. The IN Cell Analyzer 2200 or Opera-Phenix measures nuclear Alexafluor 488 fluorescent dye intensity that is directly related to the level of expression of symmetrically dimethylated nuclear proteins at the single cell level. Nuclear AF488 dye intensities are compared to the mean value for DMSO treated cells (MIN) to report percent of inhibition for each compound-treated well.
In this assay, the cell potency (EC50) of each compound was determined from a ten point (1:3 serial dilution; top compound concentration of 10000 nM) titration curve using the following outlined procedure. Each well of a BD falcon collagen coated black/clear bottom 384-well plate was seeded with 4000 MCF-7 cells in 30 μl media and allowed to attach for 5 h. Media is ATCC-formulated Eagle's Minimum Essential Medium, Catalog No. 30-2003. To make the complete growth medium, the following components were added to the base medium: 0.01 mg/ml human recombinant insulin; fetal bovine serum to a final concentration of 10%. Additional 30 μl of media containing 2× compounds were added to each well. Cells were treated for 3 days in 37° C. CO2 incubator. On day 3, cells were fixed with Cytofix, permeablized with 0.4% Triton-X-100/Cytofix, and washed with D-PBS without Ca/Mg. Cells were blocked with Licor Odessey blocking reagent for 1 h at room temperature, followed by incubation with anti-SDMA (1:1000) antibody at 4° C. overnight. 1° antibody was removed, followed by three washings with DPBS without Ca/Mg and 0.05% Tween20. Hoechst (5 μg/ml), Cell Mask deep stain (1:2000) and Alexa488-conjugated goat anti-rabbit IgG (2 μg/mL) was added for 1 hour at room temperature. A final washing step (three washes) was performed before sealing plate for imaging on In Cell Analyzer 2200 or Opera-Phenix. Images from analyzer were uploaded to Columbus (at WP or BOS) for image analysis. IC50 values were determined by 4 parameters robust fit of percent fluorescence units vs. (Logic) compound concentrations.

[2] = target: T1, PRMT5-MEP50 enzyme complex (Homo sapiens, UniProt O14744); assay: PRMT5-MEP50 Enzyme Methylation Assay; format: biochemical
T1 construct: 1.25 nM of Full-length (FL)-PRMT5-MEP50 enzyme complex; made in house; host or cells: baculovirus-transfected Sf21 cells
Method: PRMT5-MEP50 biochemical assay is a direct measurement of the methylation activity of the enzyme complex on a short peptide substrate derived from the N-terminus of H4 histone. Methylation experiment is performed with recombinant PRMT5-MEP50 protein complex. The assessment of inhibitory effect of small molecules is measured by tire effectiveness of the compounds to inhibit tins reaction (EC50).
In this assay, the potency (EC50) of each compound was determined from a twenty-point (1:2 serial dilution; top compound concentration of 100000 nM) titration curve using the following outlined procedure. To each well of a white ProxiPlus 384 well-plate, 100 nL of compound (1% DMSO in final assay volume of 10 μL) was dispensed, followed by the addition of 8 μL of 1× assay buffer (50 mM Bicine pH 8.0, 1 mM DTT, 0.004% Tween20, 0.01% BSA) containing 1.25 nM of Full-length (FL)-PRMT5-MEP50 enzyme complex (recombinant proteins from baculovirus-transfected Sf21 cells: FL-PRMT5; MW=[…] and FL-MEP50; MW=38614) and 1 μL of 150 μM S-(5′-Adenosyl)-L-Methionine Chloride (SAM). Plates were sealed and placed in a 37° C. humidified chamber for a 60 minutes pre-incubation with compound. Subsequently, each reaction was initiated by the addition of 1 μL 1× assay buffer containing 750 nM biotinylated H4R3(Mel) peptide. The final reaction in each well of 10 μL consists of 1.0 nM PRMT5-MEP50, 75 nM biotinylated-peptide, and […] SAM. Methylation reactions were allowed to proceed for 150 minutes in a sealed plate at 37° C. Reactions were immediately quenched by the addition of 1 μL of 5% formic acid. Plates were then frozen and shipped to SAMDITM Tech Inc. to determine the percent conversion from H4R3(Mel) to H4R3(Me2). Dose-response curves were generated by plotting percent effect (% product conversion; Y-axis) vs. Log 10 compound concentrations (X-axis). EC50 values were determined by non-linear regression according to models for either sigmoidal (4 parameters) or biphasic (7 parameters) dose-response curves.

[3] = single EC50 from 4 parameters single site sigmoidal model, or first EC50 of 7 parameters biphasic model, 1.0 nM PRMT5-MEP50, H4R3(Me1) peptide, SAM, read-out: Enzyme Methylation Assay (EC50 or EC50_1)
[4] = second EC50 of 7 parameters biphasic model, read-out: Enzyme Methylation Assay (EC50_2)

T1 sequence (O14744 whole entry): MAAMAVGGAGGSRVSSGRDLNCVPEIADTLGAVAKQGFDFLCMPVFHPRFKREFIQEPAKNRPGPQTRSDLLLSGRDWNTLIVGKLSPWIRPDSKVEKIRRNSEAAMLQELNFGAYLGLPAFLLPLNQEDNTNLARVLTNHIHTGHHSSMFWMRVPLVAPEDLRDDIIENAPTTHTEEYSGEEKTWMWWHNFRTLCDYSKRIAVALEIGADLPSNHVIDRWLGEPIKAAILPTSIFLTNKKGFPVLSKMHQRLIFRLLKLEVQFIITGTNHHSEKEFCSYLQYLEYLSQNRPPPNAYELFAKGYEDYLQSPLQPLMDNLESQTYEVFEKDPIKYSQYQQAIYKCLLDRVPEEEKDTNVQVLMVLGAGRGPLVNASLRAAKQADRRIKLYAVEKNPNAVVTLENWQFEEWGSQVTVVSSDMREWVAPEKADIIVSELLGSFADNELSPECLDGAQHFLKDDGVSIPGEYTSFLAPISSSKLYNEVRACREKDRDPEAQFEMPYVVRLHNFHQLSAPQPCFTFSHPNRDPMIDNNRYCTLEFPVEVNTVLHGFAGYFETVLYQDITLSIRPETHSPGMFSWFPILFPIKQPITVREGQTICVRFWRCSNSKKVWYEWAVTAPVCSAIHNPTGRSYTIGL
T1 sequence (Q9BQA1 whole entry partner): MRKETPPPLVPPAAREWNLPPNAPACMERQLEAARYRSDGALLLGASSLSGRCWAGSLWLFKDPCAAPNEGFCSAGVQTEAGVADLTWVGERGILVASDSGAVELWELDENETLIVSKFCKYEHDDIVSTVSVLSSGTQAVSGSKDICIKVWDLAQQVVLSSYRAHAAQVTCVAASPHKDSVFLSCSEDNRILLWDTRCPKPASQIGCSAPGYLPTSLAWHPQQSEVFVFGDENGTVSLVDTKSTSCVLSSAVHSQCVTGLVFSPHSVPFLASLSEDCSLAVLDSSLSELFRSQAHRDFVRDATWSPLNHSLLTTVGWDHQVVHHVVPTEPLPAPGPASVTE

Compound	EC50 ([1]; Homo sapiens, MCF7, 72 h) [nM]	EC50 [2, 3] [nM]	EC50 [2, 4] [nM]	EC50 [1] [nM]
Nc1ccc2ccc(CC[C@H]3S[C@@H](n4ccc5c(N)ncnc54)[C@H](O)[C@@H]3O)cc2n1 [Example 14, (2R,3R,4S,5R)-2-(4-amino-7H-pyrrolo[2,3-d]pyrimidin-7-yl)-5-(2-(2-aminoquinolin-7-yl)ethyl)tetrahydrothiophene-3,4-diol TFA salt]	0.7	0.3	–	–
Nc1ccc2ccc(CC[C@@H]3S[C@@H](n4ccc5c(N)ncnc54)[C@H](O)[C@@H]3O)cc2n1 [Example 15, (2R,3R,4S,5S)-2-(4-amino-7H-pyrrolo[2,3-d]pyrimidin-7-yl)-5-(2-(2-aminoquinolin-7-yl)ethyl)tetrahydrothiophene-3,4-diol]	1.4	0.9	–	–
Cc1ncnc2c1ccn2[C@@H]1S[C@@H](CCc2ccc3ccc(N)nc3c2)[C@@H](O)[C@H]1O [Example 16, (2S,3S,4R,5R)-2-[2-(2-aminoquinolin-7-yl)ethyl]-5-(4-methyl-7H-pyrrolo[2,3-d]pyrimidin-7-yl)tetrahydrothiophene-3,4-diol]	1.6	1.7	–	–
Cc1ncnc2c1ccn2[C@@H]1S[C@H](CCc2ccc3ccc(N)nc3c2)[C@@H](O)[C@H]1O [Example 17]	0.6	0.4	–	–
Cc1ncnc2c1ccn2[C@@H]1S[C@@H](CCc2ccc3cc(Br)c(N)nc3c2)[C@@H](O)[C@H]1O [Example 19]	8.4	0.4	50.1	–
Cc1ncnc2c1ccn2[C@@H]1S[C@H](CCc2ccc3cc(C(F)(F)F)c(N)nc3c2)[C@@H](O)[C@H]1O [Example 20, (2R,3S,4R,5R)-2-{2-[2-amino-3-(triflnoromethyl)quinolin-7-yl]ethyl}-5-(4-methyl-7H-pyrrolo[2,3-d]pyrimidin-7-yl)tetrahydrothionhene-3,4-diol]	741	0.7	120	–
Cc1ncnc2c1ccn2[C@@H]1S[C@@H](CCc2ccc3cc(C(F)(F)F)c(N)nc3c2)[C@@H](O)[C@H]1O [Example 21, (2S,3S,4R,5R)-2-{2-[2-amino-3-(trifluoromethyl)quinolin-7-yl]ethyl}-5-(4-methyl-7H-pyrrolo[2,3-d]pyrmidin-7-yl)tetrahydrothiophene-3,4-diol]	≥ 10000	7.4	–	–
Cc1ncnc2c1ccn2[C@@H]1S[C@H](CCc2ccc3cc(F)c(N)nc3c2)[C@@H](O)[C@H]1O [Example 22, (2R,3S,4R,5R)-2-[2-(2-amino-3-fluoroquinolin-7-yl)ethyl]-5-(4-methyl-7H-pyrrolo[2,3-d]pyrimidin-7-yl)tetrahydrodrothiophene-3,4-diol]	5.9	10.1	–	–
Cc1ncnc2c1ccn2[C@@H]1S[C@@H](CCc2ccc3cc(F)c(N)nc3c2)[C@@H](O)[C@H]1O [Example 23, (2S,3S,4R,5R)-2-[2-(2-amino-3-fluoroquinolin-7-yl)ethyl]-5-(4-methyl-7H-pyrrolo[2,3-d]pyrimidin-7-yl)tetrahydrothiophene-3,4-diol]	41.9	58.3	–	–
C[C@]1(CCc2ccc3cc(Br)c(N)nc3c2)S[C@@H](n2ccc3c(N)ncnc32)[C@H](O)[C@@H]1O [Example 30]	0.5	0.3	–	–
Cc1ncnc2c1ccn2[C@@H]1S[C@](C)(CCc2ccc3cc(Br)c(N)nc3c2)[C@@H](O)[C@H]1O [Example 32]	5.6	0.6	–	–
Cc1cn([C@@H]2S[C@H](CCc3ccc4cc(Br)c(N)nc4c3)[C@@H](O)[C@H]2O)c2ncnc(N)c12 [Example 34, (2R,3S,4R,5R)-2-(2-(2-amino-3-bromoquinolin-7-yl)ethyl)-5-(4-amino-5-methyl-7H-pyrrolo[2,3-d]pyrimidin-7-yl)tetrahydrothiophene-3,4-diol]	29.1	0.5	151	–
Cc1nc(N)c2ccn([C@@H]3S[C@H](CCc4ccc5cc(Br)c(N)nc5c4)[C@@H](O)[C@H]3O)c2n1 [Example 35, (2R,3R,4S,5R)-2-(4-amino-2-methyl-7H-pyrrolo[2,3-d]pyrimidin-7-yl)-5-(2-(2-amino-3-bromoquinolin-7-yl)ethyl)tetrahydrothiophene-3,4-diol]	35.6	1.7	–	–
CNc1ncnc2c1ccn2[C@@H]1S[C@H](CCc2ccc3cc(Br)c(N)nc3c2)[C@@H](O)[C@H]1O [Example 36]	81.1	0.6	15.3	–

The remaining molecules from weak to strong by EC50 [2, 3], led by results:

EC50 ([1]; Homo sapiens, MCF7, 72 h) [nM]	EC50 [2, 3] [nM]	EC50 [2, 4] [nM]	EC50 [1] [nM]	Compound
–	59.6	–	10.5	Cc1ncnc2c1ccn2[C@@H]1S[C@H](CCc2ccc3ccc(NCC(F)F)nc3c2)[C@@H](O)[C@H]1O [Example 26, (2R,3S,4R,5R)-2-(2-{2-[(2,2-difluoroethyl)amino]quinolin-7-yl}ethyl)-5-(4-methyl-7H-pyrrolo[2,3-d]pyrimidin-7-yl)tetrahydrothiophene-3,4-diol]
5	2.2	–	–	Cc1ncnc2c1ccn2[C@@H]1S[C@H](CCc2ccc3cc(Br)c(N)nc3c2)[C@@H](O)[C@H]1O [Example 18, (2R,3S,4R,5R)-2-(2-(2-amino-3-bromoquinolin-7-yl)ethyl)-5-(4-methyl-7H-pyrrolo[2,3-d]pyrimidin-7-yl)tetrahydrothiophene-3,4-diol]
17.4	1.5	–	–	Cc1ncnc2c1ccn2[C@@H]1S[C@H](CCc2ccc3cc(Cl)c(N)nc3c2)[C@@H](O)[C@H]1O [Example 24]
8.4	1.3	–	–	Cc1ncnc2c1ccn2[C@@H]1S[C@@H](CCc2ccc3cc(Cl)c(N)nc3c2)[C@@H](O)[C@H]1O [Example 25, (2S,3S,4R,5R)-2-[2-(2-amino-3-chloroquinolin-7-yl)ethyl]-5-(4-methy1-7H-pyrrolo[2,3-d]pyrimidin-7-yl)tetrahydrothiophene-3,4-diol]
13.5	0.8	–	–	CNc1ncnc2c1ccn2[C@@H]1S[C@](C)(CCc2ccc3cc(Br)c(N)nc3c2)[C@@H](O)[C@H]1O [Example 33, (2R,3S,4R,5R)-2-(2-(2-amino-3-bromoquinolin-7-yl)ethyl)-2-methyl-5-(4-(methylamino)-7H-pyrrolo[2,3-d]pyrimidin-7-yl)tetrahydrothiophene-3,4-diol]
53.4	0.7	–	–	C[C@]1(CCc2ccc3cc(Br)c(N)nc3c2)S[C@@H](n2ccc3c(Cl)ncnc32)[C@H](O)[C@@H]1O [Example 31, (2R,3S,4R,5R)-2-(2-(2-amino-3-bromoquinolin-7-yl)ethyl)-5-(4-chloro-7H-pyrrolo[2,3-d]pyrimidin-7-yl)-2-methyltetrahydrothiophene-3,4-diol]
